According to ChEMBL document CHEMBL1201862, “PubChem BioAssay data set” (2004):
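Following 48 hours of exposure in 96-well plates, responses at five concentrations were used to interpolate endpoints linearly. Here, GI50 denotes the concentration required for 50% inhibition of growth.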 The source made the active and inactive calls. No stated cut-off is given here; in the data, active = GI50 up to about 1.1 µM and inactive = higher.

Key:
Experiment in all cases: NCI tumour cell line growth inhibition, 48 h
[1] = test system: Malme-3M
[2] = test system: 786-0
[3] = test system: SW-620
[4] = test system: NCI-H23
[5] = test system: M14
[6] = test system: COLO 205
[7] = test system: MCF7
[8] = test system: PC-3
[9] = test system: DU-145
[10] = test system: OVCAR-5
[11] = test system: SF-295
[12] = test system: HT-29
[13] = test system: SNB-75
[14] = test system: SK-OV-3
[15] = test system: MDA-MB-231
[16] = test system: CAKI-1
[17] = test system: SR
[18] = test system: LOX IMVI
[19] = test system: T47D

Measured: GI50

CCCCN1CCC(O)(c2cc(C(=O)O)[nH]c2-c2cc(C)no2)C1=O (stereo not drawn)
inactive: [1] > 100 µM | [2] > 100 µM | [3] > 100 µM | [4] > 100 µM | [5] > 100 µM | [6] > 100 µM | [7] > 100 µM | [8] > 100 µM | [9] > 100 µM | [10] > 100 µM | [11] > 100 µM | [12] > 100 µM | [13] 49.9 µM | [14] > 100 µM | [15] > 100 µM | [16] > 100 µM

Cc1cccc2c1c(=O)c1c(O)cc3c(c1n2C)C=CC(C)(C)O3
inactive: [1] > 100 µM | [2] > 100 µM | [3] > 100 µM | [4] > 100 µM | [5] > 100 µM | [6] 33.7 µM | [7] > 100 µM | [8] > 100 µM | [9] > 100 µM | [10] > 100 µM | [11] > 100 µM | [12] 9.1 µM | [17] > 100 µM | [13] > 100 µM | [18] > 100 µM | [14] > 100 µM | [15] > 100 µM | [16] > 100 µM

O=C1c2ccccc2-c2nc(-c3cccnc3)cc3c2c1nc1ccccc13
inactive: [1] 92.9 µM | [2] > 100 µM | [3] > 100 µM | [4] 88.3 µM | [5] 14.3 µM | [6] > 100 µM | [7] > 100 µM | [8] > 100 µM | [9] > 100 µM | [10] > 100 µM | [11] 58.3 µM | [12] > 100 µM | [17] 11.9 µM | [13] > 100 µM | [18] 40.3 µM | [14] > 100 µM | [15] > 100 µM | [16] > 100 µM

CC[C@H](CCCC[C@H]1CC[C@@H]2CC(=O)C[C@H]12)OC
inactive: [1] > 100 µM | [2] > 100 µM | [4] 35.5 µM | [5] > 100 µM | [6] > 100 µM | [11] 65.9 µM | [12] 59 µM | [17] 32.9 µM | [13] > 100 µM | [18] > 100 µM | [19] 58.9 µM | [14] > 100 µM | [15] > 100 µM | [16] > 100 µM

CC1CCCOc2ccc(cc2)/C=N\c2ccc(cc2)CCc2ccc(cc2)/N=C\c2ccc(cc2)OCCC1
inactive: [1] > 100 µM | [2] > 100 µM | [3] > 100 µM | [4] > 100 µM | [5] > 100 µM | [6] > 100 µM | [7] > 100 µM | [8] > 100 µM | [9] > 100 µM | [10] > 100 µM | [11] > 100 µM | [12] > 100 µM | [17] > 100 µM | [13] > 100 µM | [18] > 100 µM | [15] > 100 µM | [16] > 100 µM

Cc1ccc(-n2c(C)n[nH]c2=O)cc1
inactive: [2] > 100 µM | [3] > 100 µM | [4] > 100 µM | [5] > 100 µM | [6] > 100 µM | [7] > 100 µM | [8] > 100 µM | [9] > 100 µM | [10] > 100 µM | [11] > 100 µM | [12] > 100 µM | [17] > 100 µM | [13] > 100 µM | [18] > 100 µM | [14] > 100 µM | [15] > 100 µM

Cc1ccc2nc(NC(=O)C(=O)C(C(=O)c3ccc4ccccc4c3)C3OC(=O)c4ccccc43)sc2c1 (stereo not drawn)
inactive: [1] 10.1 µM | [2] 6.15 µM | [3] 5.86 µM | [4] 4.99 µM | [5] 15 µM | [6] 15.1 µM | [10] 11.6 µM | [11] 4.61 µM | [12] 15.2 µM | [17] 3.33 µM | [18] 10.2 µM | [14] 29.9 µM | [16] 12.2 µM

COc1ccc(-c2cc(=O)c3ccccc3[nH]2)c(OC)c1
inactive: [1] > 100 µM | [2] > 100 µM | [3] > 100 µM | [4] > 100 µM | [5] > 100 µM | [6] > 100 µM | [11] > 100 µM | [12] > 100 µM | [17] > 100 µM | [13] > 100 µM | [18] > 100 µM | [14] > 100 µM

CC(=O)O[C@H]1CC[C@@]2(C)C(=CC[C@@H]3C2CC[C@]2(C)Nc4[nH]ncc4CC32)C1 (stereo partly drawn)
inactive: [1] 25.6 µM | [2] > 100 µM | [3] 34.8 µM | [4] 27.5 µM | [5] 19.7 µM | [10] > 100 µM | [11] 42.2 µM | [12] 16.9 µM | [13] 85.9 µM | [14] > 100 µM | [16] > 100 µM

CCC(C)Cn1c(C)nc2c1C(=O)c1ccccc1C2=O (stereo not drawn)
inactive: [1] 27.7 µM | [2] 23.1 µM | [3] 38.7 µM | [4] 20.7 µM | [5] 42.3 µM | [6] 19.8 µM | [11] 38.8 µM | [12] 28.2 µM | [17] 2.81 µM | [13] 28.6 µM | [18] 19.4 µM | [14] 54.3 µM

CCCCCCCCCCCCOP(N)(=O)OCCCCCCCCCCCC
inactive: [1] > 100 µM | [2] > 100 µM | [3] > 100 µM | [4] > 100 µM | [5] > 100 µM | [6] > 100 µM | [11] > 100 µM | [17] > 100 µM | [13] > 100 µM | [18] > 100 µM | [14] > 100 µM

CC1(C)C(=O)C(C)(C)C1=S
inactive: [1] > 100 µM | [2] > 100 µM | [3] > 100 µM | [4] > 100 µM | [5] > 100 µM | [6] > 100 µM | [10] > 100 µM | [11] > 100 µM | [12] > 100 µM | [17] > 100 µM | [13] 18.6 µM | [18] > 100 µM | [14] > 100 µM | [16] > 100 µM

O=c1ccc(-c2ccc(-n3ccnc3)cc2)nn1CCO
inactive: [1] > 100 µM | [2] > 100 µM | [3] > 100 µM | [4] > 100 µM | [5] > 100 µM | [6] > 100 µM | [7] 89.3 µM | [8] > 100 µM | [9] > 100 µM | [10] > 100 µM | [11] > 100 µM | [12] > 100 µM | [17] > 100 µM | [13] 39.9 µM | [14] > 100 µM | [16] > 100 µM
